Test results taken from article PMC7933286, “Structure-guided selection of puromycin N-acetyltransferase mutants with enhanced selection stringency for deriving mammalian cell lines expressing recombinant proteins” (Scientific Reports, 2021).

Molecular target: T1, PAC (puromycin N-acetyltransferase) (Streptomyces alboniger, UniProt P13249)
T1 construct: native full-length pac amplified from pBABE-puro, N-terminal His6-tag (pET43a), expressed in E. coli BL21(DE3); IMAC and Superdex 75; tag removal not mentioned
T1 sequence (P13249 whole entry): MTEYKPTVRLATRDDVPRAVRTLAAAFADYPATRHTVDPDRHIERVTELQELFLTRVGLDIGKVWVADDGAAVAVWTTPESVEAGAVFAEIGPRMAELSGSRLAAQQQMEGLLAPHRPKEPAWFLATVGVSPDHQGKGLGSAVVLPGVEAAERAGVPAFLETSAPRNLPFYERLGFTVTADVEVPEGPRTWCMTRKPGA
Test: X-ray crystal structure
Assay type: binding

[1] = crystals grown with 2 mM AcCoA and 2 mM puromycin, pH 8.26, trapped reaction product

## CC(C)(COP(=O)(O)OP(=O)(O)OC[C@H]1O[C@@H](n2cnc3c(N)ncnc32)[C@H](O)[C@@H]1OP(=O)(O)O)[C@@H](O)C(=O)NCCC(=O)NCCS [CoA]
[1]
  X-ray crystal structure: The ligands modelled into this structure were CoA and N-acetylated puromycin

## COc1ccc(C[C@H](NC(C)=O)C(=O)N[C@H]2[C@@H](O)[C@H](n3cnc4c(N(C)C)ncnc43)O[C@@H]2CO)cc1 [N-acetylated puromycin]
[1]
  X-ray crystal structure: The ligands modelled into this structure were CoA and N-acetylated puromycin

## CC(=O)SCCNC(=O)CCNC(=O)[C@H](O)C(C)(C)COP(=O)(O)OP(=O)(O)OC[C@H]1O[C@@H](n2cnc3c(N)ncnc32)[C@H](O)[C@@H]1OP(=O)(O)O [acetyl-CoA]
Crystals with 0.1 mM AcCoA, pH 9.0, acetyl donor site
  X-ray crystal structure: allowed the initial structure to be solved with AcCoA bound
